Patent US20030170310A1, “Tasteless, directly compressible, fast-dissolving complexes and pharmaceutical formulations thereof” (priority 2002, published 2003)

Assay: PH of drug and complex
Format: physicochemical

For CC(C)(C(=O)O)c1ccc(C(O)CCCN2CCC(C(O)(c3ccccc3)c3ccccc3)CC2)cc1.Cl (racemic) [Fexofenadine Hydrochloride, (±)-4-[1-hydroxy-4-[4-(hydroxydiphenylmethyl)-1-piperidinyl]-butyl]-α,α-dimethylbenzene acetic acid hydrochloride], the PH was 2.25-2.75.
